Key:
[1] = molecular target: Acetylcholinesterase (Electrophorus electricus) (UniProt O42275); details: at 2 mg/mL
Description: Inhibition of electric eel AChE at 2 mg/ml by Ellman's method

[2] = molecular target: Cholinesterase (Equus caballus) (UniProt P81908); details: at 2 mg/mL
Chain of Cholinesterase (Equus caballus) (P81908 whole entry): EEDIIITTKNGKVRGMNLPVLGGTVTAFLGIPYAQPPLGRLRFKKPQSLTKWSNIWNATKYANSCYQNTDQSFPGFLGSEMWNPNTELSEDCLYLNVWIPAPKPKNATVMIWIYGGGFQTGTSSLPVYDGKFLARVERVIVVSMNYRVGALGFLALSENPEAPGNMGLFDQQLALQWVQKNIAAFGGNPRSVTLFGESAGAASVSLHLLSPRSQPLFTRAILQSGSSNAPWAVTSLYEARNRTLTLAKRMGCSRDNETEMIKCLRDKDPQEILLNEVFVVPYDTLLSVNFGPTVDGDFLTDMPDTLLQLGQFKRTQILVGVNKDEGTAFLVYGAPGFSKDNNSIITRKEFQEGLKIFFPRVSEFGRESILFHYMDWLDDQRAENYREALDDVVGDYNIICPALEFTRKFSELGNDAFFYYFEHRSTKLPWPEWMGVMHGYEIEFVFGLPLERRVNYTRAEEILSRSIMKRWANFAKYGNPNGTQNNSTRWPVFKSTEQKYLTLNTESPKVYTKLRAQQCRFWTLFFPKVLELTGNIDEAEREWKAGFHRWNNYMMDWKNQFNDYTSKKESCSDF
Description: Inhibition of horse BChE at 2 mg/ml by Ellman's method

| Compound | inhibition [1] [%] | inhibition [2] [%] |
| --- | --- | --- |
| COC(=O)/C(=C1/OC(=O)C(c2ccccc2)=C1O)c1ccccc1 | 4.9 | 0.35 |
| C[C@H]1O[C@@H](Oc2c(-c3cc(O)c(O)c(O)c3)oc3cc(O)cc(O)c3c2=O)[C@@H](O)[C@@H](O)[C@@H]1O | 20.9 | -2.1 |
| CC1(C)CCC[C@](C)([C@H]2CC[C@]3(C)[C@@H]2[C@H](O)C[C@@H]2[C@@]4(C)CC[C@H](O)C(C)(C)[C@@H]4CC[C@]23C)O1 | 7.82 | 12.1 |
| CCCCC[C@H](O)/C=C/C1=C(CCCCCCC(=O)O)C(=O)CC1 | 15.6 | -1.44 |
| CC(=O)N[C@H]1[C@@H](O[C@@H]2O[C@H](C[C@@H](O)[C@@H]3O[C@H](n4ccc(=O)[nH]c4=O)[C@@H](O)[C@H]3O)[C@H](O)[C@H](O)[C@H]2NC(=O)/C=C/CCCCCCCCCCC(C)C)O[C@H](CO)[C@@H](O)[C@@H]1O | 14.2 | 1.57 |
| COc1ccc(C(=O)OC2C[C@H]3CC[C@H](C2)N3C)cc1OC (stereo partly specified) | 49.5 | 1 |
| COc1c2c(cc3c1OCO3)CCN(C)C2 | 9.58 | 29.9 |
| CCCCC[C@H](O)/C=C/[C@H]1C=CC(=O)[C@@H]1CCCCCCC(=O)O | 15.3 | -1.82 |
| O=c1oc2ccccc2c(O)c1Cc1c(O)c2ccccc2oc1=O | 12.3 | 5.48 |
| O=c1c(-c2ccc(O)cc2)coc2cc(O[C@@H]3O[C@H](CO)[C@@H](O)[C@H](O)[C@H]3O)ccc12 | 17.6 | -0.76 |
| C[C@@H]1O[C@@H](OC[C@H]2O[C@@H](Oc3cc(O)c4c(c3)O[C@H](c3ccc(O)c(O)c3)CC4=O)[C@H](O)[C@@H](O)[C@@H]2O)[C@H](O)[C@H](O)[C@H]1O | 21.5 | 1.98 |
| O=c1c(O)c(-c2ccccc2O)oc2cc(O)cc(O)c12 | 23 | 1.68 |
| O=C1/C(=C/c2ccc(O)c(O)c2)Oc2c1ccc(O[C@@H]1O[C@H](CO)[C@@H](O)[C@H](O)[C@H]1O)c2O | 22.4 | 3.06 |
| Cc1c(C(=O)O)c(O)cc2c1C(=O)c1c(O)c([C@@H]3O[C@H](CO)[C@@H](O)[C@H](O)[C@H]3O)c(O)c(O)c1C2=O | 21.5 | -1.98 |
| C[C@H]1[C@H]2CC[C@H]3[C@@H]4CC=C5C[C@@H](N(C)C)CC[C@]5(C)[C@H]4CC[C@]23CN1C | 29.9 | 45.2 |
| C=C(C)[C@@H]1CC[C@]2(C(=O)O)CC[C@]3(C)[C@H](CC[C@@H]4[C@@]5(C)CC[C@H](O)C(C)(C)[C@@H]5CC[C@]43C)[C@@H]12 | -5.33 | 2.88 |
| COc1ccc(-c2cc(=O)c3c(OC)c(OC)c(OC)cc3o2)cc1OC | 29.6 | 17.1 |
| CC(C)[C@@]1(NC(=O)[C@@H]2C[C@@H]3c4cccc5[nH]cc(c45)C[C@H]3N(C)C2)O[C@@]2(O)[C@@H]3CCCN3C(=O)[C@H](Cc3ccccc3)N2C1=O | -1.54 | 0.35 |
| O=c1cccc2n1C[C@@H]1CNC[C@H]2C1 | 2.17 | -3.85 |
| C=C1[C@@H](C)[C@H]2[C@H](Cc3ccccc3)NC(=O)[C@]23[C@H](OC(C)=O)/C=C/[C@@](C)(O)C(=O)[C@@H](C)C/C=C/[C@H]3[C@@H]1O | -2.15 | 3.92 |
| O=C1C[C@@H](c2ccc(O)cc2)Oc2cc(O)cc(O)c21 | 7.24 | 0.68 |

| Compound | inhibition [1] [%] | inhibition [2] [%] |
| --- | --- | --- |
| C/C=C(/C)C(=O)O[C@H]1CC[C@@]2(C)[C@@H]3CC[C@H]4[C@]5(O)C[C@H](O)[C@@]6(O)[C@@H](CN7C[C@@H](C)CC[C@H]7[C@@]6(C)O)[C@]5(O)C[C@@]42O[C@]13O | -3.72 | 6.44 |
| CC[C@H]1CN2CCc3cc(OC)c(OC)cc3[C@@H]2C[C@@H]1C[C@H]1NCCc2cc(OC)c(OC)cc21 | 13.7 | 1.38 |
| Oc1cc(O)cc(/C=C/c2ccc(O)c(O)c2)c1 | 17 | 2.21 |
| COc1cc2ccc(=O)oc2cc1O | 4.78 | 0.6 |
| C[C@@H]1O[C@@H](O[C@H]2[C@H](Oc3cc(O)c4c(=O)cc(-c5ccc(O)cc5)oc4c3)O[C@H](CO)[C@@H](O)[C@@H]2O)[C@H](O)[C@H](O)[C@H]1O | 27.2 | -2.37 |
| COC1=CC(=O)O[C@@H](/C=C/c2ccc3c(c2)OCO3)C1 | -4.34 | 0.15 |
| CO[C@H]1C=C2CCN(C)[C@H]2[C@@H]2c3cc4c(cc3C(=O)O[C@@H]21)OCO4 | 25.8 | -2.26 |
| COc1ccc(C[C@H]2c3cc(OC)c(OC)cc3CC[N+]2(C)C)cc1OC | 28.5 | 2.85 |
| COc1cc2c(cc1CC=C(C)C)C(=O)C[C@@H](c1ccc(O)cc1)O2 | 23.2 | 4.89 |
| CC1=C2C(=O)[C@H]3[C@@H](CC=C4C[C@@H](O)CC[C@@]43C)[C@@H]2CC[C@]12O[C@@H]1C[C@H](C)CN[C@H]1[C@H]2C | -9.1 | 5.64 |
| C[C@H]1CC[C@@H]2[C@@H](C)[C@H]3[C@H](C[C@H]4[C@@H]5CC=C6C[C@@H](O[C@@H]7O[C@H](CO)[C@H](O)[C@H](O[C@@H]8O[C@H](CO)[C@@H](O)[C@H](O)[C@H]8O)[C@H]7O[C@@H]7O[C@@H](C)[C@H](O)[C@@H](O)[C@H]7O)CC[C@]6(C)[C@H]5CC[C@]34C)N2C1 | 9.15 | 12.2 |
| O=C1/C(=C/c2ccc(O)c(O)c2)Oc2cc(O)ccc21 | 24.4 | -2.22 |
| NEOMYCIN SULFATE | -9.42 | 10.5 |
| C[n+]1cc2c3c(ccc2c2ccc4cc5c(cc4c21)OCO5)OCO3 | 27 | 1.3 |
| CC[C@H](C)/C=C(C)/C=C/C1=CC2=C(Cl)C(=O)[C@](C)(OC(C)=O)C(=O)C2=CO1 | 3.54 | 6.21 |
| OC[C@H]1O[C@@H](Oc2ccc(O)cc2)[C@H](O)[C@@H](O)[C@@H]1O | 9.16 | 6.63 |
| CN1CCc2cc3c(cc2C(=O)Cc2ccc4c(c2C1)OCO4)OCO3 | 31.1 | 7.56 |
| C[C@@H]1O[C@@H](OC[C@H]2O[C@@H](Oc3c(-c4ccc(O)c(O)c4)oc4cc(O)cc(O)c4c3=O)[C@H](O)[C@@H](O)[C@@H]2O)[C@H](O)[C@H](O)[C@H]1O | -0.25 | 4.32 |
| O=c1cc(-c2ccccc2)oc2cc(O)c(O)c(O)c12 | -3.74 | 15 |
| C[N+]1([O-])[C@@H]2CC[C@H]1C[C@H](OC(=O)C(CO)c1ccccc1)C2 (stereo partly specified) | 25.9 | -2.78 |
| COc1cc2c(c(OC)c1OC)-c1c(cc3c(c1O)OCO3)C[C@H](C)[C@](C)(O)[C@H]2OC(=O)c1ccccc1 | 5.31 | -0.32 |

| Compound | inhibition [1] [%] | inhibition [2] [%] |
| --- | --- | --- |
| C/C=C1\C[C@@H](C)[C@](O)(CO)C(=O)OCC2=CCN3CC[C@@H](OC1=O)[C@@H]23 | 4.15 | -3.05 |
| COc1cc2oc(=O)ccc2cc1O | 28.1 | 3.87 |
| COc1c2c3c4c(c(OC)c(=O)c5c(O)cc(OC)c(c6c(OC)cc(O)c(c1=O)c63)c54)[C@@H](C(C)=O)[C@@](C)(O)C2 (relative stereo) | 5.56 | 1.53 |
| C=C[C@@](C)(O)CC[C@H]1C(=C)CC[C@H]2C(C)(C)CCC[C@]12C | 21.8 | 0.47 |
| C=C1CC[C@@H]2[C@](C)(CO)[C@H](O)CC[C@@]2(C)[C@@H]1C/C=C1/C(=O)OC[C@H]1O | 25.1 | 8.56 |
| N[C@@H](Cn1ccc(=O)c(O)c1)C(=O)O | 7.74 | 11.2 |
| COC1=C(N)C(=O)c2nc(-c3nc(C(=O)O)c(C)c(-c4ccc(OC)c(OC)c4O)c3N)ccc2C1=O | -2.66 | -5.44 |
| CC[C@H](CC[C@@H](C)[C@H]1CC[C@H]2[C@@H]3CC=C4C[C@@H](O)CC[C@]4(C)[C@H]3CC[C@]12C)C(C)C | 13.8 | -1.87 |
| CC1=C2C[C@H]3[C@@H](CC=C4C[C@@H](O)CC[C@@]43C)[C@@H]2CC[C@]12O[C@@H]1C[C@H](C)CN[C@H]1[C@H]2C | -3.81 | 5.84 |
| CCCCCCC(=O)CCCCCC/C=C/C[C@@H](O)[C@H](O)[C@@](N)(CO)C(=O)O | -8.15 | 1.5 |
| C[C@H]1CC[C@@H]2[C@@H](C)[C@H]3[C@H](C[C@H]4[C@@H]5CC[C@H]6C[C@@H](O)CC[C@]6(C)[C@H]5CC[C@]34C)N2C1 | 5.43 | 41.9 |
| O=C1C[C@@H](c2ccc(O)c(O)c2)Oc2cc(O[C@@H]3O[C@H](CO)[C@@H](O)[C@H](O)[C@H]3O)cc(O)c21 | 25.4 | -9.51 |
| COc1ccc(-c2coc3cc(O)cc(O)c3c2=O)cc1 | 2.29 | -9.1 |
| COc1cc2c(c(OC)c1OC)-c1ccc(OC)c(=O)cc1[C@@H](NC=O)CC2 | 23.9 | -0.59 |
| CO[C@H]1C[C@@H]2CC[C@@H](C)[C@@](O)(O2)C(=O)C(=O)N2CCCC[C@H]2C(=O)O[C@H]([C@H](C)C[C@@H]2CC[C@@H](O)[C@H](OC)C2)CC(=O)[C@H](C)/C=C(\C)[C@@H](O)[C@@H](OC)C(=O)[C@H](C)C[C@H](C)/C=C/C=C/C=C/1C | 18.7 | 4.03 |
| CCCCC[C@H](O)/C=C/[C@@H]1[C@@H](C/C=C\CCCC(=O)O)[C@@H](O)C[C@H]1O | 12.9 | 5.03 |
| C[C@H]1CCCC(=O)CCC/C=C/c2cc(O)cc(O)c2C(=O)O1 | 1.81 | -1.04 |
| COc1ccc2cc1Oc1ccc(cc1)C[C@@H]1c3cc(c(OC)cc3CCN1C)Oc1c(OC)c(OC)cc3c1[C@H](C2)N(C)CC3 | -1.02 | 21.9 |
| COc1cc([C@@H]2c3cc4c(cc3[C@H](O)[C@H]3COC(=O)[C@H]23)OCO4)cc(OC)c1OC | 8.74 | -9.54 |
| COc1cc2c(cc1OC)[C@@H]1C(=O)c3ccc4c(c3O[C@@H]1CO2)C=CC(C)(C)O4 | -8.14 | 2.21 |
| C=C1[C@@H](C)[C@H]2[C@H](Cc3ccccc3)NC(=O)[C@]23OC(=O)/C=C/[C@H](O)CCC[C@@H](C)C/C=C/[C@H]3[C@@H]1O | -2.03 | 8.94 |

Source: ChEMBL document CHEMBL2163249, “Exploration of natural compounds as sources of new bifunctional scaffolds targeting cholinesterases and beta amyloid aggregation: the case of chelerythrine” (Bioorg Med Chem, 2012)
